Source: PMC7481357, “N-terminal Myristoylation Enhanced the Antimicrobial Activity of Antimicrobial Peptide PMAP-36PW” (Frontiers in Cellular and Infection Microbiology, 2020)
Entries after “also recorded” stand apart in the source; their conditions may differ. Residues, ends and D or L forms follow the SMILES beside them. *: point of attachment. Myristoyl = CCCCCCCCCCCCCC(=O)*

Tests used:
[1] = system: P. aeruginosa GIM 1.551; assay type: cell-based, Pseudomonas aeruginosa
Description: (§1) The MICs of Myr-36PW in vitro were measured through microdilution in accordance with the Clinical and Laboratory Standards Institute (CLSI, [2020]). The bacterial cells were cultured for 12 h at 37°C in the appropriate medium and then diluted to 1 × 10^6 CFU/mL. Equal volumes (100 μL) of bacterial cell suspension and two-fold serially diluted different concentrations peptides (0.0039–256 μg/mL) were added to each well of the sterile 96-well plate. The samples were incubated for 18 h at 37°C. After incubation, the MICs of the peptides were determined by evaluating the growth based on the OD600 of the cultures.

[2] = system: L. monocytogenes CICC 21634; assay type: cell-based, Listeria monocytogenes
Description: as §1

[3] = system: S. aureus ATCC 25923; experiment: Pneumonia (lung infection) model; assay type: in vivo, BALB/c mice; conditions: intranasal 40 μL, 1 μg/μL, once a day for 3 days; for Pathological scores of the lung sections: n = 5; for Bacterial CFU in lung homogenate: reduced vs PBS group P < 0.01, n = 5
Description: A pneumonia model in vivo was established as previously reported, with minor modification (Cortés et al., [2002]; Aoki et al., [2009]; Shi et al., [2018]). A total of 120 mice were randomly divided into two experimental models, one was intranasal inoculation of S. aureus ATCC 25923 (8.3 × 10^9 CFU/mL, 50 μL), and the other was intranasal inoculation of P. aeruginosa GIM 1.551 (4.5 × 10^10 CFU/mL, 50 μL). In the S. aureus ATCC 25923 model, 60 mice were divided into the following six groups of 10 mice each: no infection and treatment was used as a blank control, those with intranasal administration of PBS (40 μL) as the negative control group, those administered with benzylpenicillin potassium (40 μL, 1 μg/μL) as the positive control group, and the remaining three corresponded to Myr-36PW (40 μL, 1 μg/μL), PMAP-36PW (40 μL, 1 μg/μL), and PMAP-36 groups (40 μL, 1 μg/μL). The procedure for P. aeruginosa GIM 1.551 model is the same as for S. aureus ATCC 25923 model, except for the use of ampicillin sodium as the positive control. After 4 h post-inoculation, treatment was initiated, once a day for 3 days. The mice were sacrificed 24 h after the treatment. Changes in the appearance of lung tissues were observed, and lung tissues were removed aseptically from the mice. Half of the removed lung tissues were gently fixed in buffered formaldehyde solution for histopathological assessment by hematoxylin and eosin (H&E) staining. Pathological changes were scored to provide individual therapeutic status as described previously (Lei et al., [2018]). The remaining lung tissues were added with 1 mL of PBS, homogenized, and serially diluted. Bacterial CFU counts were determined.
Figure 8 Therapeutic effect for pneumonia by Myr-36PW in vivo. Mice were injected with S. aureus ATCC 25923 or P. aeruginosa GIM 1.551 to form pneumonia, and lungs (n = 5) in each group were collected on day 4 after intranasal bacterial inoculation. (A) Morphological changes of lung tissues. (B) Representative histopathological images of processed lung section with hematoxylin and eosin (H&E) staining. Images are presented at a magnification of 20×. a: inflammatory cell infiltration. b: the alveolar wall is thickened. c: alveolar wall congestion or alveolar hemorrhage. (C,D) Pathological scores of the lung sections. Scoring standard: 1 indicated no pathology, 2 indicated local pulmonary congestion and inflammatory cell infiltration, 3 indicated pulmonary congestion and a large number of inflammatory cell infiltration, affecting <20% of the section, 4 indicated pulmonary congestion and a large number of inflammatory cell infiltration, affecting 20–50% of the section, and 5 indicated pulmonary congestion and a large number of inflammatory cell infiltration, affecting >50% of the section. (E,F) Bacterial CFU in lung homogenate. BP is benzylpenicillin potassium, AS is ampicillin sodium. Data represent the mean ± SD of five individual experiments.

[4] = system: S. aureus ATCC 25923; experiment: Subcutaneous abscess model; assay type: in vivo, BALB/c mice; conditions: injected 20 μL, 1 μg/μL, once a day for 3 days; for Bacterial CFU in abscess area: n = 5
Description: A subcutaneous abscess model in vivo was established as previously reported (Zhao et al., [2019]). The mouse dorsal region with 3.0 cm diameter was treated with hair pusher. A total of 120 mice were randomly divided into two experimental models, one was challenged with S. aureus ATCC 25923 (2.5 × 10^8 CFU/mL, 60 μL), and the other was challenged with P. aeruginosa GIM 1.551 (3.0 × 10^8 CFU/mL, 60 μL). In the S. aureus ATCC 25923 model, 60 mice were divided into six groups of 10 members. The mice with no infection and treatment was used as a blank control, those directly injected with PBS (20 μL) as the negative control group, those injected with benzylpenicillin potassium (20 μL, 1 μg/μL) as the positive control group, and the remaining three groups as the treatment groups injected with Myr-36PW (20 μL, 1 μg/μL), PMAP-36PW (20 μL, 1 μg/μL), and PMAP-36 (20 μL, 1 μg/μL). The procedure in P. aeruginosa GIM 1.551 model is the same as that in S. aureus ATCC 25923 model, except for the use of ampicillin sodium as a positive control. Treatment once a day for 3 days was initiated when the mice developed prominent pustules on their backs. A day after the treatment, the size of the abscess was observed, and its tissues were excised, homogenized, and serially diluted. Bacteria CFU counts were calculated.
Figure 10 Treatment efficacy of subcutaneous abscess by Myr-36PW in vivo. Mice were injected with S. aureus ATCC 25923 or P. aeruginosa GIM 1.551 to develop a subcutaneous abscess before treatment. (A) Changes in the abscess area of mice after 3 days treatment. (B,C) Quantitative analysis of bacterial CFU in abscess area that received 3 days treatment under various experimental conditions. The number of CFU in each treatment group was normalized by using the CFU of the experimental group divided by the CFU of the PBS group (100%). BP is benzylpenicillin potassium, AS is ampicillin sodium. Data represent the mean ± SD of five individual experiments. *P < 0.05 and **P < 0.01, compared with PBS. ^#P < 0.05 and ^##P < 0.01, compared with PMAP-36PW.

[5] = system: S. typhimurium SL 1344; assay type: cell-based, Salmonella typhimurium
Description: as §1

SMILES: CC1(C)S[C@@H]2[C@H](NC(=O)Cc3ccccc3)C(=O)N2[C@H]1C(=O)O [Benzylpenicillin potassium]
- MICs of different classes of antibiotics ([1]; P. aeruginosa GIM 1.551, * indicates resistant (CLSI, 2020)): 64 µg/mL
- MICs of different classes of antibiotics ([2]; L. monocytogenes CICC 21634, * indicates resistant (CLSI, 2020)): 64 µg/mL
- Lung histopathology (H&E) [3]: a complete alveolar structure, reduced blood stasis, and large reduction in inflammatory cells
- Pathological scores of the lung sections [3]: lower scores than PMAP-36PW group (P < 0.05)
- Bacterial CFU in lung homogenate [3]: reduced; also recorded: lower than that for PMAP-36PW group (P < 0.05)
- Abscess area [4]: significantly reduced the abscess area and effectively suppressed its growth
- Bacterial CFU in abscess area [4]: lower than that in PBS group (P < 0.01)
- MICs of different classes of antibiotics ([5]; S. typhimurium SL 1344, * indicates resistant (CLSI, 2020)): 16 µg/mL

SMILES: CCCCCCCCCCCCCC(=O)NCC(=O)NCC(=O)N[C@@H](CCCNC(=N)N)C(=O)N[C@@H](Cc1ccccc1)C(=O)N[C@@H](CCCNC(=N)N)C(=O)N[C@@H](CCCNC(=N)N)C(=O)N[C@@H](CC(C)C)C(=O)N[C@@H](CCCNC(=N)N)C(=O)N[C@@H](CCCCN)C(=O)N[C@@H](CCCCN)C(=O)N[C@H](C(=O)N[C@@H](CCCNC(=N)N)C(=O)N[C@@H](CCCCN)C(=O)N[C@@H](CCCNC(=N)N)C(=O)N[C@@H](CC(C)C)C(=O)N[C@@H](CCCCN)C(=O)N[C@@H](CCCCN)C(=O)N[C@H](C(=O)NCC(=O)N[C@@H](CCCCN)C(=O)N[C@H](C(=O)N[C@@H](CC(C)C)C(=O)N[C@@H](CCCCN)C(=O)N[C@@H](Cc1c[nH]c2ccccc12)C(=O)N[C@H](C(=O)N[C@@H](Cc1c[nH]c2ccccc12)C(=O)N[C@@H](Cc1c[nH]c2ccccc12)C(=O)N[C@H](C(=O)N[C@H](C(=O)NCC(=O)N[C@@H](CO)C(=O)N[C@H](C(=O)N1CCC[C@H]1C(=O)N[C@@H](CC(C)C)C(=O)NCC(=O)N[C@@H](CS)C(=O)NCC(=O)O)[C@@H](C)CC)C(C)C)[C@@H](C)CC)[C@@H](C)CC)C(C)C)[C@@H](C)CC)[C@@H](C)O [Myr-36PW] (Myristoyl-GGRFRRLRKKTRKRLKKIGKVLKWIWWIVGSIPLGCG-OH; C-terminus assumed)
- MICs ([1]; GIM 1.551, 18 h): 0.25 µg/mL
- MICs ([2]; CICC 21634, 18 h): 0.5 µg/mL
- Lung histopathology (H&E) [3]: a complete alveolar structure, reduced blood stasis, and large reduction in inflammatory cells
- Pathological scores of the lung sections [3]: lower scores than PMAP-36PW group (P < 0.05)
- Bacterial CFU in lung homogenate [3]: reduced; also recorded: lower than that for PMAP-36PW group (P < 0.05)
- Abscess area [4]: significantly reduced the abscess area and effectively suppressed its growth
- Bacterial CFU in abscess area [4]: lower than that in PBS group (P < 0.01)
- MICs ([5]; SL 1344, 18 h): 8 µg/mL
